Key:
myosin II [1] = target: T1, myosin II (Dictyostelium discoideum, UniProt P08799, S456L); experiment: Myosin II cortical localization by SIM, TIRF and confocal imaging; format: cell-based; conditions: myoII null cells, time course beyond one hour
T1 construct: expressed in transfected cells; host or cells: Dictyostelium discoideum myoII null cells rescued with GFP-myosin II
Description: (§1) Micropipette aspiration was used for cortical tension and creep response measurements. Confocal imaging was performed on a Zeiss 510 Meta with a 63× (numerical aperture [NA] 1.4) objective (Carl Zeiss, Jena, Germany). Epifluorescence and TIRF imaging was performed in a 22° C. temperature controlled room with an Olympus IX81 microscope using a 40× (NA 1.3) or 60× (NA 1.49) objective and a 1.4× optovar (Olympus, Center Valley, Pa.), as previously described. Image analysis was performed with ImageJ (rsb.info.nih.gov/ij).
(§2) Imaging conditions during primary screen are described above. All other image analysis was performed as previously described (Kee Y S, et al., 2012). Cells were transferred from Petri dishes (with 0.1% DMSO incubation in growth media of 4 hrs) to imaging chambers and allowed to adhere for 20 min in growth media with 0.1% DMSO. After the cells adhered, the growth media was replaced with 2-(N-morpholino)ethanesulfonic acid (MES) starvation buffer (50 mM MES, pH 6.8, 2 mM MgCl2, 0.2 mM CaCl2) with 0.1% DMS. Confocal imaging was performed on aZeiss 510 Meta with a 63× (numerical aperture [NA] 1.4) objective (Carl Zeiss, Jena, Germany). Epifluorescence and TIR imaging was performed in a 22° C. temperature controlled room with an Olympus IX81 microscope using a 40× (NA 1.3) or 60× (NA […]) objective and a 1.4× optovar (Olympus, Center Valley, Pa.), as previously described. Image analysis was performed with ImageJ (rsb.info.nih.gov/ij). Many data sets were independently analyzed by multiple investigators.

myosin II [2] = target: T2, myosin II (Dictyostelium discoideum, UniProt P08799, T1823A/T1833A/T2029A); experiment: as above; format: cell-based; conditions: myoII null cells, 500 nM, 10 minutes post-treatment
T2 construct: expressed in transfected cells; host or cells: Dictyostelium discoideum myoII null cells rescued with GFP-myosin II
T2 sequence (P08799 whole entry T1823A/T1833A/T2029A): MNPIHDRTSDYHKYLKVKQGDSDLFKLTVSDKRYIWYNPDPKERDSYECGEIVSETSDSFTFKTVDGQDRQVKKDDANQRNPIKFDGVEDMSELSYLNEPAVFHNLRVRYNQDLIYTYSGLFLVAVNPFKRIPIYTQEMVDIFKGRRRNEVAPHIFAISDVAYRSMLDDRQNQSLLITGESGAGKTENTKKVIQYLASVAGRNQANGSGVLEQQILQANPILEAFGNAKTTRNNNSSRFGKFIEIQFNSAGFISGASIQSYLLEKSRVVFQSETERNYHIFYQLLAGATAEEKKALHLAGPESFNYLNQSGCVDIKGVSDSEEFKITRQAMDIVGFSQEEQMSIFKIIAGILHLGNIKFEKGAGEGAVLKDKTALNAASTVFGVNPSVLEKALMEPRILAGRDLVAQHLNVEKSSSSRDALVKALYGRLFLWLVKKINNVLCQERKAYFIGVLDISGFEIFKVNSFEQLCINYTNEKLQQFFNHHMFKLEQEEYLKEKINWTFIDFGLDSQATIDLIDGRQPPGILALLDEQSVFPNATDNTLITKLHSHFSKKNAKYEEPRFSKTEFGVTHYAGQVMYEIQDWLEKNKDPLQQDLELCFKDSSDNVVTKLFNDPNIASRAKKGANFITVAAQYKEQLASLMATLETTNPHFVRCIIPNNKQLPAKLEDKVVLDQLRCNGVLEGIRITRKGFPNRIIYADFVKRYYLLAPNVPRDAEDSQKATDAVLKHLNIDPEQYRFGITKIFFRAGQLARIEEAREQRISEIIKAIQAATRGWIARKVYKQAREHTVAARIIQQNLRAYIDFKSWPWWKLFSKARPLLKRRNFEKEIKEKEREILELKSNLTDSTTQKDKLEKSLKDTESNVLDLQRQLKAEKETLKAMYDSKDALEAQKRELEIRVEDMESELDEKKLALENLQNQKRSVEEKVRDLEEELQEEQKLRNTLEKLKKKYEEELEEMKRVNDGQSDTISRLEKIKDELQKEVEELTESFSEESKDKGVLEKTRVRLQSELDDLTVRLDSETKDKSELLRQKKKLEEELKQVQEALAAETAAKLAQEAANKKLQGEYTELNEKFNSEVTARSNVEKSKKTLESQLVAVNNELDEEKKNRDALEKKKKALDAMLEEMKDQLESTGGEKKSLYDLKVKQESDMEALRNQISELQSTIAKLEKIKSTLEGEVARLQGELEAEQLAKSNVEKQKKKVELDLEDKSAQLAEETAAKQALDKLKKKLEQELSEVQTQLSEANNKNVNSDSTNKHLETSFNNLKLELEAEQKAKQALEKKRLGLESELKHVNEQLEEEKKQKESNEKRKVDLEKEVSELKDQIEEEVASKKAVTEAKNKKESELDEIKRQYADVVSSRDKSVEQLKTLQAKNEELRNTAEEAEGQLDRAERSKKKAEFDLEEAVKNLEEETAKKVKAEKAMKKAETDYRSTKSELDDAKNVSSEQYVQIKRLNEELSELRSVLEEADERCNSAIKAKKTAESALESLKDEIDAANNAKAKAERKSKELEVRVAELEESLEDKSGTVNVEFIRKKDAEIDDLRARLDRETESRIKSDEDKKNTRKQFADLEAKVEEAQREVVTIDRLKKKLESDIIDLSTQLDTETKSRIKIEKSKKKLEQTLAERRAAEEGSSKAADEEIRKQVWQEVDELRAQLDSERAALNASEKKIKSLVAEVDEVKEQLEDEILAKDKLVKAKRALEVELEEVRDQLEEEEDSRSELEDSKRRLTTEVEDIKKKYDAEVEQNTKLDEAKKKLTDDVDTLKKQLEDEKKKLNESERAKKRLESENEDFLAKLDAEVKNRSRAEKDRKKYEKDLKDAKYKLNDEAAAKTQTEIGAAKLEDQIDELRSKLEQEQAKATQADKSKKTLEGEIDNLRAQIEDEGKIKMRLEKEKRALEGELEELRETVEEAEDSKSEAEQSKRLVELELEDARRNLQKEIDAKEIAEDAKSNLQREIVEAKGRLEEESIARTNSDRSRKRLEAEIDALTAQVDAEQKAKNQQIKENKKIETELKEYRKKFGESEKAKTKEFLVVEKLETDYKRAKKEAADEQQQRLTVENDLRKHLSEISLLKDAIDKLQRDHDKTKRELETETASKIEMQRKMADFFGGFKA
Description: as §1, §2

myosin II [3] = target: T3, myosin II (Dictyostelium discoideum, UniProt P08799, T1823D/T1833D/T2029D); experiment: as above; format: cell-based; conditions: myoII null cells, 500 nM, 10 minutes post-treatment
T3 construct: expressed in transfected cells; host or cells: Dictyostelium discoideum myoII null cells rescued with GFP-myosin II
T3 sequence (P08799 whole entry T1823D/T1833D/T2029D): as the sequence (P08799 whole entry T1823A/T1833A/T2029A) above, with A1823D, A1833D, A2029D counted along it
Description: as §1, §2

myosin II [4] = experiment: as above; format: cell-based, Dictyostelium discoideum; conditions: myoII null cells
Description: as §1, §2

HL-60 cells = experiment: Micropipette aspiration cortical tension; format: cell-based, human; conditions: 500 nM, 1 hr
Description: The instrumental and experimental setups have been previously described (Effler J C, et al., 2006; Kee Y-S, et al., 2013). Micropipette aspiration assays were all carried out in growth media with 0.1% DMSO. For cortical tension measurements of Dictyostelium cells, pressure was applied to the cell cortex with a micropipette (2-3 m radius, Rp) to the equilibrium pressure (ΔP) where the length of the cell inside the pipette (Lp) was equal to Rp. The effective cortical tension (Teff) was calculated by applying the Young-Laplace equation: ΔP=2Teff(1/Rp-1/Rc), where Rc is the radius of the cell and ΔP is the equilibrium pressure when Lp=Rp (Derganc J, et al., 2000; Octtaviani E, et al., 2006). For creep tests on mammalian strains, a constant aspiration stress was applied over 60 s. The micropipette radius was 3.5-4.5 m. For quantification, the Lp/Rp ratio values was measured every two seconds and plotted as a function of time. A10.7 and HEK293 cells could only be aspirated at a low pressure range (0.15 nN/μm^2), while HPDE, ASPC-1, and HL-60 cells could be aspirated at higher pressure ranges (0.25 nN/μm^2) because they were stiffer.

ASPC-1 cells = experiment: Matrigel invasion assay; format: cell-based, human; conditions: transwells with 2 mg/ml Matrigel
Description: Cells were treated as in migration assay, but plated in transwells containing 2 mg/ml Matrigel (BD Biosciences).

T1 sequence (P08799 whole entry S456L): as the sequence (P08799 whole entry T1823A/T1833A/T2029A) above, with S456L, A1823T, A1833T, A2029T counted along it

CC(=O)c1ccc(O)cc1 [4-HAP, 4-hydroxyacetophenone]
myosin accumulation, GFP-S456L myosin (myosin II [1]): did not show a response to 4-HAP | filament formation, GFP-3XAla myosin (myosin II [2]): increasing in filament length and intensity | filament formation, GFP-3XAsp myosin (myosin II [3]): generating more short filaments | myosin accumulation, GFP-S1 motor domain (myosin II [4]): did not show an accumulation response | cortical tension (HL-60 cells): does not alter the cortical tension | in vitro invasion (ASPC-1 cells): dose-dependent decrease

— patent US11834401B2, “Treating and preventing diseases by modulating cell mechanics” (THE JOHNS HOPKINS UNIVERSITY, priority 2013, dated 2023)
